According to PMC11212260, “Next-generation neuropeptide Y receptor small-molecule agonists inhibit mosquito-biting behavior” (Parasites & Vectors, 2024):
Several values for one entry are separate records, joined by “and”; a condition that tells them apart may be missing. Equal entries are not always repeated. Where two headings read alike, the source gives them in different places.

What was measured:
[1] = test system: Aedes aegypti (Orlando strain) females; test: Host-seeking screening assay (miniport olfactometer); format: in vivo; details: for Attraction (relative to saline): per-compound value of Fig. 3C; for effect on host-seeking (in words): fed at a dose of 1 μM
Method in brief: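 Fasted Orlando-strain females fed saline meals (400 mM NaHCO3) with 1 mM ATP and test compound at 1 μM final via warmed membrane feeders; lethality counted 24 h post-meal. At 48 h, attraction to human-scented stocking plus 5% CO2 scored over 5 min, normalized to matched saline-fed controls.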

[2] = molecular target: Ae. aegypti NPYLR7 (Aedes aegypti, UniProt U5N1H5); test: In vitro calcium (GCaMP6s) FLIPR assay in HEK293T cells transfected with NPYLR7; format: cell-based; details: for in vitro potency (in words): relative to reference compound TDI-012631; for RFU: assay date 1/11/20 plate 1, duplicate wells, listed as TDI-012631-CL-1
Sequence of Ae. aegypti NPYLR7 (U5N1H5 entry or part of it): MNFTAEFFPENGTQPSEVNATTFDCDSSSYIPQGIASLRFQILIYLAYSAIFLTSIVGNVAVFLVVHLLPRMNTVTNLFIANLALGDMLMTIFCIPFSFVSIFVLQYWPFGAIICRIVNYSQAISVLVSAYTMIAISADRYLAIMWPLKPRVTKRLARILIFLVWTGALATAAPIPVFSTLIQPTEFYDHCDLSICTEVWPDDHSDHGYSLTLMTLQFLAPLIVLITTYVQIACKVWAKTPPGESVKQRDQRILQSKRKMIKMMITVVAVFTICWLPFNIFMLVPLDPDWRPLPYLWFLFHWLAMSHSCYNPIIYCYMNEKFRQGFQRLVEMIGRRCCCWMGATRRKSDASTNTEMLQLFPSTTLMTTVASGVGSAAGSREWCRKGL
Method in brief: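 HEK293T cells transiently co-transfected with GCaMP6s, mouse Gqα15 and NPYLR7; FLIPR imaging every second for 5 min, compound (0–100 μM) added after 30 s baseline in HBSS + 20 mM HEPES. Response normalized to buffer (0%) and 10 μM FMRFa3 (100%); relative EC50 by four-parameter fit, replicates averaged.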

[3] = fed 1 μM in saline, tested 48 h post-meal
[4] = EC50 of the individual assay date/plate (assay date), read-out: EC50
[5] = Figure 1E Summary, third list (n = 39), read-out: Reported Metric (Summary list)
[6] = relative EC50, percent effect relative to 10 μM FMRFa3, read-out: EC50
[7] = summary EC50 per compound (mean over assay dates), the unit is taken from the neighbouring EC50 (uM) column, read-out: Reported Metric

`CNc1nc(NC(=N)N)nc2cc(OCc3ccccc3)c(OC)cc12` [TDI-014184] was tested, and the “Attraction (relative to saline)” value [1, 3] was 0.6, the EC50 [2, 4] was 0.49 µM and the EC50 [2, 5] was 0.49 µM. The activation at 0.0457 µM ([2]; HEK-293T, 0.0457 uM, single replicate, normalised response) was 8.6%, the activation at 11.1111 µM ([2]; HEK-293T, 11.1111 uM, single replicate, normalised response) was 91.4% and the EC50 [2, 6] was 0.49 µM. For the same compound, the “in vitro potency (in words)” value [2] was “significantly improved in vitro potency” and the EC50 [2, 7] was 0.49 µM.

In the case of `COc1ccc2c(C)nc(NC(=N)N)nc2c1` [TDI-012631, reference compound], the “Host-seeking relative to saline (test compound % host-seeking/average matched saline % host-seeking)” value ([1]; fed 1 μM in saline, tested 48 h post-meal, individual replicates, listed as TDI-02631) is reported as 1.06 and 1, the “Attraction (relative to saline)” value [1, 3] is reported as 0.99 and the “effect on host-seeking (in words)” value [1] is reported as “not active”. For the same compound, the RFU ([2]; 0.00169350878084303uM) was 71 RFU and 55 RFU, the RFU ([2]; 0.00508052634252909uM) was 71 RFU and 78 RFU and the RFU ([2]; 0.0152415790275873uM) was 77 RFU and 71 RFU. The RFU ([2]; 0.0457247370827618uM) was 80 RFU and 73 RFU, the RFU ([2]; 0.137174211248285uM) was 64 RFU and 79 RFU and the RFU ([2]; 0.411522633744856uM) was 90 RFU and 78 RFU. For the same compound, the RFU ([2]; 3.7037037037037uM) was 273 RFU and 186 RFU, the RFU ([2]; 11.1111111111111 uM) was 265 RFU and 324 RFU and the RFU ([2]; 33.333333 uM) was 286 RFU and 301 RFU. The RFU ([2]; 100 uM) was 368 RFU and 331 RFU, the EC50 [2, 5] was 4.11 µM and the EC50 ([2]; Figure 1E, EC50 of the single assay date/plate, read-out: EC50) was 2.75 µM and 1.61 µM and 2.58 µM and 3.45 µM and 2.36 µM and 11.5 µM and 2.22 µM and 6.4 µM. The EC50 ([2]; Figure 1E, metric reported per compound, repeated on every replicate line, read-out: Reported Metric (EC50)) was 4.11 µM, the “response at 0.0051(uM)” value ([2]; compound 0.0051 uM, single replicate well) was -0.02145 and the “response at 0.0152(uM)” value ([2]; compound 0.0152 uM, single replicate well) was 3.235. The “response at 0.4115(uM)” value ([2]; compound 0.4115 uM, single replicate well) was -1.786, the EC50 [2, 6] was 4.11 µM and the EC50 ([2]; sheet Figure 3C, unit inferred, read-out: EC50) was 4.11 µM.

`Cc1nc(NC(=N)N)nc2cc(N3CCc4ccccc4C3)ccc12` [TDI-014186] was tested, and the “Attraction (relative to saline)” value [1, 3] was 0.685, the “effect on host-seeking (in words)” value [1] was “reduced host-seeking behavior” and the EC50 [2, 4] was 35.5 µM. For the same compound, the EC50 ([2]; Figure 1E Summary, second list (n = 48), read-out: Reported Metric (Summary list)) was 35.5 µM, the EC50 [2, 6] was 35.5 µM and the “in vitro potency (in words)” value [2] was “lower in vitro potency”. The EC50 [2, 7] was 35.5 µM.
